# Test results from patent publication US11590139B2, “Substituted aminopurine compounds, compositions thereof, and methods of treatment therewith” (Signal Pharmaceuticals, LLC, priority 2014, dated 2023).
# Like-named read-outs stand apart in the source and are kept apart here.
# Test system: Lox-IMVI melanoma cell line
# Assay: Lox-IMVI anti-proliferative assay (growth inhibition, Cell Titer-Glo)
# Assay type: cell-based, human
# Details: Lox-IMVI melanoma cell line, anti-proliferative assay, read-out: Activity (IC50 activity level)
# Outline: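 IC50 values reflect the concentration giving 50% of DMSO-control luminescence after 72 h of treatment, fitted with a four-parameter logistic model. Cells were cultured in RPMI + 10% FBS with compound from 0.5 nM to 10 μM.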
Compound,IC50 (Homo sapiens) [nM],IC50 [nM]
"N#Cc1ccc(Nc2nc3cnc(NC4CCCC4)nc3n2[C@H]2CC[C@@H](C(N)=O)CC2)c(Cl)c1Cl [Example 693, (1s,4s)-4-(2-(cyclopentylamino)-8-(2,3-dichloro-4-cyanophenylamino)-9H-purin-9-yl)cyclohexanecarboxamide]",> 1000,–
"C[C@@H](CO)Nc1ncc2nc(Nc3ccc(C#N)c(Cl)c3Cl)n([C@H]3CC[C@@H](C(N)=O)CC3)c2n1 [Example 694, (1R,4s)-4-(8-(2,3-dichloro-4-cyanophenylamino)-2-((S)-1-hydroxypropan-2-ylamino)-9H-purin-9-yl)cyclohexanecarboxamide]",> 1000,–
"N#Cc1ccc(Nc2nc3cnc(NC4CCC(F)(F)CC4)nc3n2[C@H]2CC[C@@H](C(N)=O)CC2)c(Cl)c1Cl [Example 695, (1s,4s)-4-(8-(2,3-dichloro-4-cyanophenylamino)-2-(4,4-difluorocyclohexylamino)-9H-purin-9-yl)cyclohexanecarboxamide]",> 1000,–
"N#Cc1ccc(Nc2nc3cnc(NC4CCOCC4)nc3n2[C@H]2CC[C@@H](C(N)=O)CC2)c(Cl)c1Cl [Example 696, (1s,4s)-4-(8-(2,3-dichloro-4-cyanophenylamino)-2-(tetrahydro-2H-pyran-4-ylamino)-9H-purin-9-yl)cyclohexanecarboxamide]",500 to 1000,–
"N#Cc1cc(F)c(Nc2nc3cnc(N[C@@H]4CCC(F)(F)C4)nc3n2[C@H]2CC[C@@H](C(N)=O)CC2)c(Cl)c1 [Example 698, (1S,4s)-4-(8-(2-chloro-4-cyano-6-fluorophenylamino)-2-((R)-3,3-difluorocyclopentylamino)-9H-purin-9-yl)cyclohexanecarboxamide]",< 250,–
"N#Cc1cc(Cl)c(Nc2nc3cnc(N[C@@H]4CCC(F)(F)C4)nc3n2[C@H]2CC[C@@H](C(N)=O)CC2)c(Cl)c1 [Example 699, (1S,4s)-4-(8-(2,6-dichloro-4-cyanophenylamino)-2-((R)-3,3-difluorocyclopentylamino)-9H-purin-9-yl)cyclohexanecarboxamide]",250 to 500,–
"CS(=O)(=O)N1CCC[C@@H](Nc2ncc3nc(Nc4c(Cl)cc(Cl)cc4Cl)n([C@H]4CC[C@@H](C(N)=O)CC4)c3n2)C1 [Example 700, (1S,4s)-4-(2-((R)-1-(methylsulfonyl)piperidin-3-ylamino)-8-(2,4,6-trichlorophenylamino)-9H-purin-9-yl)cyclohexanecarboxamide]",500 to 1000,–
"CS(=O)(=O)N1CCC[C@@H](Nc2ncc3nc(Nc4c(F)cc(Cl)cc4Cl)n([C@H]4CC[C@@H](C(N)=O)CC4)c3n2)C1 [Example 701, (1S,4s)-4-(8-(2,4-dichloro-6-fluorophenylamino)-2-((R)-1-(methylsulfonyl)piperidin-3-ylamino)-9H-purin-9-yl)cyclohexanecarboxamide]",500 to 1000,–
"CS(=O)(=O)N1CCC[C@@H](Nc2ncc3nc(Nc4c(Cl)cc(C#N)cc4Cl)n([C@H]4CC[C@@H](C(N)=O)CC4)c3n2)C1 [Example 702, (1S,4s)-4-(8-(2,6-dichloro-4-cyanophenylamino)-2-((R)-1-(methylsulfonyl)piperidin-3-ylamino)-9H-purin-9-yl)cyclohexanecarboxamide]",> 1000,–
"COC(=O)N1CCC[C@@H](Nc2ncc3nc(Nc4c(Cl)cc(C#N)cc4Cl)n([C@H]4CC[C@@H](C(N)=O)CC4)c3n2)C1 [Example 708, (R)-methyl 3-(9-((1s,4S)-4-carbamoylcyclohexyl)-8-(2,6-dichloro-4-cyanophenylamino)-9H-purin-2-ylamino)piperidine-1-carboxylate]",250 to 500,–
"COC(=O)N1CCC[C@@H](Nc2ncc3nc(Nc4c(F)cc(C#N)cc4Cl)n([C@H]4CC[C@@H](C(N)=O)CC4)c3n2)C1 [Example 709, (R)-methyl 3-(9-((1s,4S)-4-carbamoylcyclohexyl)-8-(2-chloro-4-cyano-6-fluorophenylamino)-9H-purin-2-ylamino)piperidine-1-carboxylate]",500 to 1000,–
"CC(=O)N1CCC[C@@H](Nc2ncc3nc(Nc4c(F)cc(Cl)cc4Cl)n([C@H]4CC[C@@H](C(N)=O)CC4)c3n2)C1 [Example 711, (1S,4s)-4-(2-((R)-1-acetylpiperidin-3-ylamino)-8-(2,4-dichloro-6-fluorophenylamino)-9H-purin-9-yl)cyclohexanecarboxamide]",> 1000,–
"CC(=O)N1CCC[C@@H](Nc2ncc3nc(Nc4c(F)cc(Cl)cc4F)n([C@H]4CC[C@@H](C(N)=O)CC4)c3n2)C1 [Example 713, (1S,4s)-4-(2-((R)-1-acetylpiperidin-3-ylamino)-8-(4-chloro-2,6-difluorophenylamino)-9H-purin-9-yl)cyclohexanecarboxamide]",> 1000,–
"NC(=O)[C@H]1CC[C@@H](n2c(Nc3c(F)cc(Cl)cc3Cl)nc3cnc(N[C@H]4CCOC[C@H]4F)nc32)CC1 [Example 714, (1R,4s)-4-(8-(2,4-dichloro-6-fluorophenylamino)-2-((3S,4S)-3-fluorotetrahydro-2H-pyran-4-ylamino)-9H-purin-9-yl)cyclohexanecarboxamide]",< 250,–
"C[C@]1(C(N)=O)CC[C@@H](n2c(Nc3c(F)cc(F)cc3Cl)nc3cnc(N[C@@H]4CCOC[C@H]4F)nc32)CC1 [Example 715, (1S,4s)-4-(8-(2-chloro-4,6-difluorophenylamino)-2-((3S,4R)-3-fluorotetrahydro-2H-pyran-4-ylamino)-9H-purin-9-yl)-1-methylcyclohexanecarboxamide]",< 250,–
"C[C@]1(C(N)=O)CC[C@@H](n2c(Nc3c(F)cc(Cl)cc3Cl)nc3cnc(N[C@H]4CCOC[C@H]4F)nc32)CC1 [Example 716, (1R,4s)-4-(8-(2,4-dichloro-6-fluorophenylamino)-2-((3S,4S)-3-fluorotetrahydro-2H-pyran-4-ylamino)-9H-purin-9-yl)-1-methylcyclohexanecarboxamide]",< 250,–
"C[C@@H]1COCC[C@H]1Nc1ncc2nc(Nc3c(F)cc(Cl)cc3Cl)n([C@H]3CC[C@@](C)(C(N)=O)CC3)c2n1 [Example 717, (1S,4s)-4-(8-(2,4-dichloro-6-fluorophenylamino)-2-((3S,4R)-3-methyltetrahydro-2H-pyran-4-ylamino)-9H-purin-9-yl)-1-methylcyclohexanecarboxamide]",< 250,–
"C[C@]1(C(N)=O)CC[C@@H](n2c(Nc3c(Cl)cc(Cl)cc3Cl)nc3cnc(N[C@@H]4CCOC[C@H]4F)nc32)CC1 [Example 718, (1S,4s)-4-(2-((3S,4R)-3-fluorotetrahydro-2H-pyran-4-ylamino)-8-(2,4,6-trichlorophenylamino)-9H-purin-9-yl)-1-methylcyclohexanecarboxamide]",< 250,–

# Continued, values first:
IC50 (Homo sapiens) [nM],IC50 [nM],Compound
< 250,–,"NC(=O)[C@H]1CC[C@@H](n2c(Nc3c(F)cc(F)cc3Cl)nc3cnc(N[C@H]4CCOC[C@H]4F)nc32)CC1 [Example 692, (1R,4s)-4-(8-(2-chloro-4,6-difluorophenylamino)-2-((3S,4S)-3-fluorotetrahydro-2H-pyran-4-ylamino)-9H-purin-9-yl)cyclohexanecarboxamide]"
250 to 500,–,"N#Cc1cc(F)c(Nc2nc3cnc(N[C@@H]4CCC(F)(F)C4)nc3n2[C@H]2CC[C@@H](C(N)=O)CC2)c(F)c1 [Example 697, (1S,4s)-4-(8-(4-cyano-2,6-difluorophenylamino)-2-((R)-3,3-difluorocyclopentylamino)-9H-purin-9-yl)cyclohexanecarboxamide]"
> 1000,–,"CS(=O)(=O)N1CCC[C@@H](Nc2ncc3nc(Nc4c(F)cc(Cl)cc4F)n([C@H]4CC[C@@H](C(N)=O)CC4)c3n2)C1 [Example 703, (1S,4s)-4-(8-(4-chloro-2,6-difluorophenylamino)-2-((R)-1-(methylsulfonyl)piperidin-3-ylamino)-9H-purin-9-yl)cyclohexanecarboxamide]"
> 1000,–,"CS(=O)(=O)N1CCC[C@@H](Nc2ncc3nc(Nc4c(F)cc(C#N)cc4Cl)n([C@H]4CC[C@@H](C(N)=O)CC4)c3n2)C1 [Example 704, (1S,4s)-4-(8-(2-chloro-4-cyano-6-fluorophenylamino)-2-((R)-1-(methylsulfonyl)piperidin-3-ylamino)-9H-purin-9-yl)cyclohexanecarboxamide]"
> 1000,–,"CNC(=O)N1CCC[C@@H](Nc2ncc3nc(Nc4c(Cl)cc(Cl)cc4Cl)n([C@H]4CC[C@@H](C(N)=O)CC4)c3n2)C1 [Example 705, (R)-3-(9-((1s,4S)-4-carbamoylcyclohexyl)-8-(2,4,6-trichlorophenylamino)-9H-purin-2-ylamino)-N-methylpiperidine-1-carboxamide]"
> 1000,–,"CNC(=O)N1CCC[C@@H](Nc2ncc3nc(Nc4c(F)cc(Cl)cc4Cl)n([C@H]4CC[C@@H](C(N)=O)CC4)c3n2)C1 [Example 706, (R)-3-(9-((1s,4S)-4-carbamoylcyclohexyl)-8-(2,4-dichloro-6-fluorophenylamino)-9H-purin-2-ylamino)-N-methylpiperidine-1-carboxamide]"
–,> 1000,"CNC(=O)N1CCC[C@@H](Nc2ncc3nc(Nc4c(Cl)cc(C#N)cc4Cl)n([C@H]4CC[C@@H](C(N)=O)CC4)c3n2)C1 [Example 707, (R)-3-(9-((1s,4S)-4-carbamoylcyclohexyl)-8-(2,6-dichloro-4-cyanophenylamino)-9H-purin-2-ylamino)-N-methylpiperidine-1-carboxamide]"
> 1000,–,"CC(=O)N1CCC[C@@H](Nc2ncc3nc(Nc4c(Cl)cc(Cl)cc4Cl)n([C@H]4CC[C@@H](C(N)=O)CC4)c3n2)C1 [Example 710, (1S,4s)-4-(2-((R)-1-acetylpiperidin-3-ylamino)-8-(2,4,6-trichlorophenylamino)-9H-purin-9-yl)cyclohexanecarboxamide]"
> 1000,–,"CC(=O)N1CCC[C@@H](Nc2ncc3nc(Nc4c(Cl)cc(C#N)cc4Cl)n([C@H]4CC[C@@H](C(N)=O)CC4)c3n2)C1 [Example 712, (1S,4s)-4-(2-((R)-1-acetylpiperidin-3-ylamino)-8-(2,6-dichloro-4-cyanophenylamino)-9H-purin-9-yl)cyclohexanecarboxamide]"
